Data from US9475840B2, “Protease-resistant compounds useful as shuttles through the blood-brain barrier and shuttle-cargo constructs” (UNIVERSITAT DE BARCELONA, priority 2012, dated 2016).
Like-named read-outs stand apart in the source and are kept apart here. Where a SMILES comes first, the peptide text is derived from it. [ ]: non-standard residue; d: D form. Quantum Dot = not defined here

Tests used:
[1] = Stability of the shuttle in human serum; conditions: for half-life: human, serum
Procedure: At a range of times, 50 μL aliquots were collected to which methanol was added in order to precipitate the serum proteins. The samples were centrifuged, filtered and analysed by HPLC to determine the degree of degradation of the BBB-shuttle

[2] = test system: co-culture of brain endothelial cells and astrocytes; experiment: Transport across the BBB, in vitro co-culture cell assay (transwell); conditions: — = not detected in acceptor compartment; for Transport (%) (2 h): percentage of transport after a 2 hours assay; for Papp (×10^6) cm/s: apparent permeability, 2 h at 37° C., Ringer-HEPES buffer pH 7.4, triplicate, 50 μM or 0.75 nM (particles)
Source text: (§1) The evaluation method chosen to test the compounds of formula (I) and (II) of the invention was a cell-based assay consisting of a co-culture of brain endothelial cells and astrocytes, which allows to evaluate or to predict the transport of compounds through the BBB. […] Under these conditions endothelial cells are able to reach the confluence mimicking the BBB. […] Is commonly used model for permeation studies and toxicity of compounds across the BBB.
(§2) The co-culture assay was used to determine the capacity of the constructs cargo-shuttle to cross the BBB. […] The permeability tests were performed in Ringer-HEPES buffer at pH 7.4. The compound of interest was dissolved in the buffer to the desired concentration.
(§3) Once the endothelial cells were confluent on the filters (transwells) these were washed with Ringer-HEPES buffer. The acceptor well was filled with 800 μL of Ringer-HEPES buffer and the donor well with 200 μL of the solution of the compound to be studied. The system was incubated at 37° C. and 5% CO2 for 2 h. After that time the content of the acceptor and donor compartments were analyzed by HPLC, ICP or fluorescence measurements (depending on cargo anchored to the shuttle). Transport was also confirmed by mass spectrometry MALDI-TOF.
(§4) The apparent permeability was calculated using the following equation: Papp=(dQ/dt)*(1/A)*(1/C0)(cm/s)
(§5) Where (dQ/dt) is the amount of compound present in the compartment acceptor function of time (nmol/s). A is the area of the filter (cm2) and C0 is the initial concentration of the compound applied in the donor compartment (nmol/mL).
(§6) The values of permeability equal to or higher than 1×10-6 cm/s are considered exceptionally good, and values equal to or higher than 0.1×10-6 cm/s are considered good.

[3] = as above; conditions: pH 7.4
Source text: as §1, §2, §3, §4, §5, §6

[4] = test system: co-culture of brain endothelial cells and astrocytes
Source text: as §1, §2, §3, §4, §5, §6

| Transport (%) (2 h) [2] | Papp [3] [×10⁻⁶ cm/s] | Compound | Papp (×10^6) cm/s [2] | further results |
| --- | --- | --- | --- | --- |
| 25.1 ± 3 | 21.4 ± 2.1 | CSCC[C@@H](NC(=O)[C@@H](Cc1c[nH]c2ccccc12)NC(=O)[C@@H](CO)NC(=O)[C@H]1CCCN1C(=O)[C@H](NC(=O)[C@@H](Cc1c[nH]c2ccccc12)NC(=O)[C@H]1CCCN1)C(C)C)C(=O)N1CCC[C@@H]1C(=O)N1CCC[C@@H]1C(=O)N[C@H](CCCNC(=N)N)C(=O)N[C@H](Cc1c[nH]cn1)C(=O)N[C@@H](C(N)=O)[C@H](C)O [Example 1, H-D-Pro-D-Trp-D-Val-D-Pro-D-Ser-D-Trp-D-Met-D-Pro-D-Pro-D-Arg-D-His-D-Thr-NH2] (HELM PEPTIDE1{[dP].[dW].[dV].[dP].[dS].[dW].[dM].[dP].[dP].[dR].[dH].[dT].[am]}$$$$V2.0) | – | half-life [1]: > 24 h |
| 10.1 ± 1.3 | 8.46 ± 2.1 | CSCC[C@@H](NC(=O)[C@@H](Cc1c[nH]c2ccccc12)NC(=O)[C@@H](CO)NC(=O)[C@H]1CCCN1C(=O)[C@H](NC(=O)[C@@H](Cc1c[nH]c2ccccc12)NC(=O)[C@H]1CCCN1C(=O)[C@@H](N)Cc1ccc(O)c(O)c1)C(C)C)C(=O)N1CCC[C@@H]1C(=O)N1CCC[C@@H]1C(=O)N[C@H](CCCNC(=N)N)C(=O)N[C@H](Cc1c[nH]cn1)C(=O)N[C@@H](C(N)=O)[C@H](C)O [Example 8, L-dopa-D-Pro-D-Trp-D-Val-D-Pro-D-Ser-D-Trp-D-Met-D-Pro-D-Pro-D-Arg-D-His-D-Thr-NH2] (HELM PEPTIDE1{[N[C@@H](Cc1ccc(O)c(O)c1)C(=O)[*:2]].[dP].[dW].[dV].[dP].[dS].[dW].[dM].[dP].[dP].[dR].[dH].[dT].[am]}$$$$V2.0) | – | – |
| 17.1 ± 2.6 | 16.2 ± 1.3 | CSCC[C@@H](NC(=O)[C@@H](Cc1c[nH]c2ccccc12)NC(=O)[C@@H](CO)NC(=O)[C@H]1CCCN1C(=O)[C@H](NC(=O)[C@@H](Cc1c[nH]c2ccccc12)NC(=O)[C@H]1CCCN1C(=O)c1ccc2c(c1)C(=O)OC21c2ccc(O)cc2Oc2cc(O)ccc21)C(C)C)C(=O)N1CCC[C@@H]1C(=O)N1CCC[C@@H]1C(=O)N[C@H](CCCNC(=N)N)C(=O)N[C@H](Cc1c[nH]cn1)C(=O)N[C@@H](C(N)=O)[C@H](C)O [Example 9, 5(6)-Carboxyfluorescein-D-Pro-D-Trp-D-Val-D-Pro-D-Ser-D-Trp-D-Met-D-Pro-D-Pro-D-Arg-D-His-D-Thr-NH2] (HELM PEPTIDE1{[O=C1OC2(c3ccc(O)cc3Oc3cc(O)ccc32)c2ccc(C(=O)[*:2])cc21].[dP].[dW].[dV].[dP].[dS].[dW].[dM].[dP].[dP].[dR].[dH].[dT].[am]}$$$$V2.0) | – | – |
| 0.2 ± 0.04 | 0.14 ± 0.01 | CSCC[C@@H](NC(=O)[C@@H](Cc1c[nH]c2ccccc12)NC(=O)[C@@H](CO)NC(=O)[C@H]1CCCN1C(=O)[C@H](NC(=O)[C@@H](Cc1c[nH]c2ccccc12)NC(=O)[C@H]1CCCN1C(=O)[C@@H](CCCCN)NC(=O)[C@@H](CCCCN)NC(=O)[C@@H](CC(C)C)NC(=O)[C@H](NC(=O)[C@@H](Cc1ccc2ccccc2c1)NC(=O)[C@@H](Cc1ccccc1)N(C)C(=O)[C@@H](C)N)C(C)C)C(C)C)C(=O)N1CCC[C@@H]1C(=O)N1CCC[C@@H]1C(=O)N[C@H](CCCNC(=N)N)C(=O)N[C@H](Cc1c[nH]cn1)C(=O)N[C@@H](C(N)=O)[C@H](C)O [Example 12, H-D-Ala-D-NMePhe-D-Nal(2)-D-Val-D-Leu-D-Lys-D-Lys-D-Pro-D-Trp-D-Val-D-Pro-D-Ser-D-Trp-D-Met-D-Pro-D-Pro-D-Arg-D-His-D-Thr-NH2] (HELM PEPTIDE1{[dA].[CN([C@H](Cc1ccccc1)C(=O)[*:2])[*:1]].[O=C([C@@H](Cc1ccc2ccccc2c1)N[*:1])[*:2]].[dV].[dL].[dK].[dK].[dP].[dW].[dV].[dP].[dS].[dW].[dM].[dP].[dP].[dR].[dH].[dT].[am]}$$$$V2.0) | – | – |
| 11.7 ± 6.4 | 9.9 ± 1.6 | CSCC[C@@H](NC(=O)[C@H]1CCCN1C(=O)[C@H]1CCCN1C(=O)[C@@H](CCCNC(=N)N)NC(=O)[C@@H](Cc1c[nH]cn1)NC(=O)[C@H](N)[C@H](C)O)C(=O)N[C@H](Cc1c[nH]c2ccccc12)C(=O)N[C@H](CO)C(=O)N1CCC[C@@H]1C(=O)N[C@@H](C(=O)N[C@H](Cc1c[nH]c2ccccc12)C(=O)N1CCC[C@@H]1C(N)=O)C(C)C [compound 2, H-D-Thr-D-His-D-Arg-D-Pro-D-Pro-D-Met-D-Trp-D-Ser-D-Pro-D-Val-D-Trp-D-Pro-NH2, reference compound] (HELM PEPTIDE1{[dT].[dH].[dR].[dP].[dP].[dM].[dW].[dS].[dP].[dV].[dW].[dP].[am]}$$$$V2.0) | – | half-life [1]: > 24 h |
| – | – | H-Gly-D-Pro-D-Trp-D-Val-D-Pro-D-Ser-D-Trp-D-Met-D-Pro-D-Pro-D-Arg-D-His-D-Thr-NH2 [Example 2] | – | Transport (%) (2 h) [4]: 22.3 ± 2.6%; Papp (×10^6) cm/s ([4]; pH 7.4): 19.4 ± 1.8 (×10^6) cm/s |
| 14.9 ± 2.5 | 12.5 ± 5.2 | H-THRPPMWSPVWP-NH2 [compound 1, H-L-Thr-L-His-L-Arg-L-Pro-L-Pro-L-Met-L-Trp-L-Ser-L-Pro-L-Val-L-Trp-L-Pro-NH2, reference compound] | – | Degradation / half-life time in human serum (in words) ([1]; 150 μM, 37° C., 90% human serum): rapidly degraded; half-life [1]: < 1 h |
| – | – | Rhodamine b-L-Lys(Antibody)-D-Pro-D-Trp-D-Val-D-Pro-D-Ser-D-Trp-D-Met-D-Pro-D-Pro-D-Arg-D-His-D-Thr-NH2 [Example 17] | 0.16 ± 0.10 (×10^6) cm/s | – |
| – | – | Rhodamine b-L-Lys(Antibody)-D-Pro-D-Trp-D-Val-D-Pro-D-Ser-D-Trp-D-Met-D-Pro-D-Pro-D-Arg-D-His-D-Thr-NH2 [Example 18] | 0.18 ± 0.05 (×10^6) cm/s | – |
| – | – | Rhodamine b-L-Lys(Antibody)-D-Pro-D-Trp-D-Val-D-Pro-D-Ser-D-Trp-D-Met-D-Pro-D-Pro-D-Arg-D-His-D-Thr-NH2 [Example 20] | 0.36 ± 019 (×10^6) cm/s | – |

| Compound | Transport (%) (2 h) [2] | Papp [3] [×10⁻⁶ cm/s] | Papp (×10^6) cm/s [2] | further results |
| --- | --- | --- | --- | --- |
| Antibody Avastin partially reduced and trapped with Ellman's reagent: bevacizumab (Avastin) antibody cargo, partially reduced and trapped with Ellman's reagent | 0.064 ± 0.006 | – | 0.054 ± 0.005 (×10^6) cm/s | – |
| Quantum Dot-Gly-D-Pro-D-Trp-D-Val-D-Pro-D-Ser-D-Trp-D-Met-D-Pro-D-Pro-D-Arg-D-His-D-Thr-NH2 ({Quantum Dot}-G[dP][dW][dV][dP][dS][dW][dM][dP][dP][dR][dH][dT]-NH2; reading uncertain; also: quantum dot nanoparticle conjugate, printed as Quantum Dot-Gly-D-Pro-D-Trp-D-Val-D-Pro-D-Ser-D-Trp-D-Met-D-Pro-D-Pro-D-Arg-D-His-D-Thr-NH2) [Example 10] | 0.31 ± 0.02 | – | 0.27 ± 0.03 (×10^6) cm/s | – |
| nanoparticle superparamagnetic iron oxide (SPION)-Gly-D-Pro-D-Trp-D-Val-D-Pro-D-Ser-D-Trp-D-Met-D-Pro-D-Pro-D-Arg-D-His-D-Thr-NH2 ({SPION}-G[dP][dW][dV][dP][dS][dW][dM][dP][dP][dR][dH][dT]-NH2) [Example 11] | 0.22 ± 0.05 | – | 0.19 ± 0.07 (×10^6) cm/s | – |
